Where two headings read alike, the source gives them in different places. Values belong to the molecule of their own block, whether it stands above or below them.
Legend:
[1] = tested on: HEPM cells; test: Growth stimulation assay: incorporation of 5-[125I]iodo-2'-deoxyuridine into DNA of quiescent HEPM cells; type: cell-based, human; conditions: 66 h + 6 h radionuclide label
Experimental: FIGS. 1(A) and 1(B) Bioactivity of TGF-β on HEPM cells: incorporation of radionuclide into DNA. Results are presented as percent stimulation vs the picomolar (pM) concentration of TGF-β. Percent stimulation was calculated as follows: treated (cpm)-untreated (cpm)/untreated (cpm) x 100. Panel A: TGF-β1, treatment. Panel B: TGF-β2 treatment.
HEPM cells (5,000 cells/50 μl ) were subcultured in 96-well tissue culture plates (Falcon 30072) in growth medium comprising minimal essential medium (Gibco, Grand Island, N.Y.) supplemented with 10% heat-inactivated fetal bovine serum, 600 μg/ml L-glutamine, 500 μg/ml penicillin and 500 μg/ml streptomycin for a 24-hour period at 37° C. in a humidified 5% CO2 /95% air atosphere. A nondividing, quiescent state of growth was achieved by subsequent incubation for 48 hours in growth medium supplemented with 0.5% fetal bovine serum. Quiescent cells were then stimulated to proliferate by the addition of fetal bovine serum (10 μl ) and test samples of TGF-β1, or TGF-β2 (50 μl). The cells were incubated an additional 66 hours at 37° C. […] The amount of cell growth was measured by the amount of radionuclide incorporated into the DNA of actively growing cells.

[2] = tested on: HEPM cells; test: Co-stimulation with EGF assay (radionuclide incorporation into DNA); type: cell-based, human
Experimental: Quiescent HEPM cells were stimulated to proliferate by the addition of fetal bovine serum (15 μ) and test samples of TGF-β2 (50 μl) and/or EGF (50 μl), resulting in a total assay volume of 165 μl. The amount of cell growth was measured by the amount of radionuclide incorporated into the DNA of actively growing cells.
The response of HEPM cells to TGF-β treatment in the presence of EGF was determined by radiolabeling the DNA of dividing cells as described in Materials and Methods. A suboptimal dose of TGF-β2 was analyzed for growth stimulatory activity in the presence of EGF. […] HEPM cells treated with both EGF and TGF-β2 at the same doses gave a 511% stimulation, a potentiated response of 340% over that expected from the sum of the two individual responses.

[3] = molecular target: T1, HEPM cell-surface receptors for TGF-β (Homo sapiens, UniProt Q03167); test: Radioreceptor assay: [125I]-iodo-TGF-β1 in competition with unlabeled TGF-β1, Scatchard analysis; type: binding; conditions: untreated HEPM cells, Scatchard two-site model
T1 construct: endogenous in cells; host or cells: HEPM (human embryonic palatal mesenchyme) cells, intact monolayers
T1 sequence (Q03167 21-851): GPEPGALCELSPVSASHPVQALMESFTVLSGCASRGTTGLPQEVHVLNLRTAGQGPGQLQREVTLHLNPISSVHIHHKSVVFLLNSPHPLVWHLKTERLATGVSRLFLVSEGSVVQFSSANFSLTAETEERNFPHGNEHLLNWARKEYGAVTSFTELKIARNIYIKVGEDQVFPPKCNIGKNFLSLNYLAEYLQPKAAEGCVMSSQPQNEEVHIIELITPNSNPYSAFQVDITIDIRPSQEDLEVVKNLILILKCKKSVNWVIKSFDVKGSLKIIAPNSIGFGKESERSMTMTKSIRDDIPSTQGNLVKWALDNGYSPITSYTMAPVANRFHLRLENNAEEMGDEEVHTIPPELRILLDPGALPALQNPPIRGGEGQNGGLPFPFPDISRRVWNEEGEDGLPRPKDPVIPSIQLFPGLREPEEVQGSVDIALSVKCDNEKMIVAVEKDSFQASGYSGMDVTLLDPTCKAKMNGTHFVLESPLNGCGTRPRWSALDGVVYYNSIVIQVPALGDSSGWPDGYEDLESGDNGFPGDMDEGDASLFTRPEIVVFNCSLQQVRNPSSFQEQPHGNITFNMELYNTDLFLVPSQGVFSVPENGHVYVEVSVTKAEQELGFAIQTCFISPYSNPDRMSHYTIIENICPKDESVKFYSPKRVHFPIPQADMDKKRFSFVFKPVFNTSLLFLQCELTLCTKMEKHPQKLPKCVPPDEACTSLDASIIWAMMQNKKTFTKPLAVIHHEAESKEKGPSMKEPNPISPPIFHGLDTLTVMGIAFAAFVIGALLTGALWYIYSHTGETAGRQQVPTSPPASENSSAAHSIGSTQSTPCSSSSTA
Experimental: (§1) HEPM cells were grown to confluence (1×10^5 cells/well) in 24-well Costar tissue culture plates. Prior to the binding assay, cells were pre-incubated in serum-free growth medium at 37° C. for 4 hours to allow for the dissociation of TGF-β from occupied cells surface receptors. The resulting monolayers were washed 2 times in binding buffer (Dulbecco's MEM+0.1% BSA+25 mM HEPES). 250 μl of binding buffer containing 0.5 μg/ml [^125 I]-iodoTGF-β1, (specific activity of 100 μCi/μg) together with increasing amounts of unlabeled TGF-β1 were added to duplicate wells. Steady state binding was carried out at 4° C. for 3 hours. After incubation cells were washed 3 times with cold binding buffer and solubilized in 200 μl of Triton solution (20 mM HEPES, 1% Triton X-100, 10% glycerol, 0.01% BSA, pH 7.4). Radioactivity was determined using a gamma spectrometer. Non-specific binding was determined in the presence of a 1,000-fold molar excess unlabeled TGF-β1.
(§2) The radioreceptor assay described in Materials and Methods was used to characterize the affinity and number of cell-surface receptors for TGF-β on HEPM cells. Specific binding of [^125 I]-iodo-TGF-βin these assays was 20% of the total radioligand present. […] Half-maximal displacement of radioligand occurred at 100 pM (2.6 ng/ml) unlabeled TGF-β1. Competitive binding data were plotted according to the method of Scatchard (Scatchard, et al., 1947, Ann. NY Acad Sci 51:660-672) and the results are presented in FIG. 5. A distinctly curvilinear isotherm was obtained indicating the presence of at least two classes of binding sites on HEPM cells. […] Quantitative analysis determined that HEPM cells contain a total of 287,000 TGF-β receptors per cell (55,400 high affinity and 231,600 low affinity sites).

[4] = tested on: HEPM cell-surface receptors for TGF-β; test: as above; type: binding, human; conditions: comparison of growth stimulation and receptor binding, FIG. 6
Experimental: as §1, §2

[5] = molecular target: T2, TGF-β (Homo sapiens, UniProt P01137); test: Affinity labeling of purified soluble receptor with [125I]-iodo-TGF-β, DSS cross-linking, SDS-PAGE; type: binding; conditions: [125I]-iodo-TGF-β with or without 1,000 ng/ml unlabeled TGF-β
T2 construct: endogenous in cells; host or cells: HEPM cells
Experimental: FIG. 10 Ability of purified TGF-β receptor to bind TGF-β. Affinity purified receptor preparations were crosslinked to bound [^125 I]-iodo-TGF-β with DSS and analyzed on SDS-PAGE. Lanes marked (-) contained only [^125 I]-iodo-TGF-β; lanes marked (+) contained [^125 I]-iodo-TGF-β in the presence of 1,000 ng/ml unlabeled TGF-β. The 240 Kd band is specifically labeled with radioligand and has the same mobility on SDS-PAGE as the receptor-TGF-β complex from cell surface membranes (see FIG. 7).
Solubilized receptor samples (50 μl) were diluted with three volumes of binding buffer containing 0.5% v/v Triton X-100 and 50 ng/ml [^125 I]-iodo-TGF-β. The samples were incubated at 4° C. for 3 hours in the presence or absence of 1,000 ng/ml unlabeled TGF-β. Four microliters (4 μl) of 10 mM DSS in DMSO were then added. After 15 minutes the unreacted DSS was quenched by adding 20 μl of 100 mM Tris/HCl pH 7.0.
Affinity-labeled samples were incubated at 4° C. for 2 hours with 15 μl of packed WGA-sepharose beads (wheat germ aglutinin-sepharose, Sigma) with end-over-end mixing. The beads were sedimented by centrifugation at 12,000 xg for 1 minute and washed three times with a buffer solution containing 0.5% v/v Triton X-100, 10 mM Tris/HCl, mM EDTA. The washed, packed beads were heated for 5 minutes at 95° C. in the presence of 20 μl of electrophoresis sample buffer containing 5% 2-mercaptoethanol. […]

T2 sequence (P01137 279-390): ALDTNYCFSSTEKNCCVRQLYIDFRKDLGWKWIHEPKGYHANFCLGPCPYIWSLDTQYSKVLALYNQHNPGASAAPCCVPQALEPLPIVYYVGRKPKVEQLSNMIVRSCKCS

Molecule: TGF-β2: polypeptide of molecular weight 26,000 composed of two identical 13,000 dalton subunits which are disulfide linked
ED50 in stimulating the proliferation of HEPM cells (half-maximal growth stimulation) [1]: 0.0023 nM | percent stimulation ([2]; 0.3 ng/ml TGF-β2 alone (suboptimal dose)): 150%

Molecule: EGF: epidermal growth factor [reference compound]
percent stimulation ([2]; 13 ng/ml EGF alone): 21%

Continued, in another order:

Kd ([3]; read-out: kd, high-affinity (low capacity) site): 0.058 nM | Kd ([3]; read-out: kd, low-affinity (high capacity) site): 0.898 nM
Molecule: TGF-β: Transforming growth factor-Beta, type not named at the place; the underlying radioreceptor and FIG. 6 data were obtained with TGF-β1
concentration to occupy all TGF-β receptor sites relative to concentration for maximal growth stimulatory response [4]: about 20 times

ability of purified receptor to bind TGF-β [5]: specifically bind TGF-β
B1: affinity purified receptor: type III TGF-β receptor affinity purified from HEPM cells, about 200-206 kd, N-terminus Lys-Tyr-Tyr-Asp-Lys-Asp-Tyr (protein, UniProt Q03167 21-851, looked up)
Transforming growth factor …: GPEPGALCELSPVSASHPVQALMESFTVLSGCASRGTTGLPQEVHVLNLRTAGQGPGQLQREVTLHLNPISSVHIHHKSVVFLLNSPHPLVWHLKTERLATGVSRLFLVSEGSVVQFSSANFSLTAETEERNFPHGNEHLLNWARKEYGAVTSFTELKIARNIYIKVGEDQVFPPKCNIGKNFLSLNYLAEYLQPKAAEGCVMSSQPQNEEVHIIELITPNSNPYSAFQVDITIDIRPSQEDLEVVKNLILILKCKKSVNWVIKSFDVKGSLKIIAPNSIGFGKESERSMTMTKSIRDDIPSTQGNLVKWALDNGYSPITSYTMAPVANRFHLRLENNAEEMGDEEVHTIPPELRILLDPGALPALQNPPIRGGEGQNGGLPFPFPDISRRVWNEEGEDGLPRPKDPVIPSIQLFPGLREPEEVQGSVDIALSVKCDNEKMIVAVEKDSFQASGYSGMDVTLLDPTCKAKMNGTHFVLESPLNGCGTRPRWSALDGVVYYNSIVIQVPALGDSSGWPDGYEDLESGDNGFPGDMDEGDASLFTRPEIVVFNCSLQQVRNPSSFQEQPHGNITFNMELYNTDLFLVPSQGVFSVPENGHVYVEVSVTKAEQELGFAIQTCFISPYSNPDRMSHYTIIENICPKDESVKFYSPKRVHFPIPQADMDKKRFSFVFKPVFNTSLLFLQCELTLCTKMEKHPQKLPKCVPPDEACTSLDASIIWAMMQNKKTFTKPLAVIHHEAESKEKGPSMKEPNPISPPIFHGLDTLTVMGIAFAAFVIGALLTGALWYIYSHTGETAGRQQVPTSPPASENSSAAHSIGSTQSTPCSSSSTA
